Reference: patent EP2332917B1, “Compounds for PIM kinase inhibition and for treating malignancy” (Sygnis Bioscience GmbH & Co. KG, priority 2009, dated 2011)
Entries after “also recorded” stand apart in the source; their conditions may differ.

Molecular target: T1, PIM-1 kinase (Homo sapiens, UniProt P11309)
T1 construct: purchased Cell Signaling Technology Inc., Boston, USA
Test: In vitro assay for PIM-1 kinase inhibition (PIM-1 Kinase Assay Kit, colorimetric ELISA readout)
Assay type: biochemical
Conditions: for PIM-1 kinase inhibition (result in words): increasing concentrations 0.1 to 100 µM, Fig. 1 (1.5 ng PIM-1 kinase) and Fig. 2 (2.5 ng PIM-1 kinase); for % remaining PIM-1 kinase activity: test compound at final concentration 100 µM, normalized to positive control (no test compound) = 100 % activity, 1.5 ng (A-D series) or 2.5 ng (E series) PIM-1 kinase, 200 µM ATP
Procedure: • Fig. 1: The compounds 1-chloro-5-([1,4]diazepane-1-sulfonyl)-8-propoxy-isoquinoline (compound A), 1-chloro-5-(piperazin-1-sulfonyl)-8-methoxy-isoquinoline (compound B), […] (compound C), and 1-chloro-5-([1,4]diazepane-1-sulfonyl)-6-methoxy-isoquinoline (compound D) are potent PIM kinase inhibitors. In vitro assays of PIM-1 kinase activity (1.5 ng) in the present of increasing concentrations of the compounds A, B, C or D were performed as described within example 5. An assay without additional test compound served as positive control for the assay (pos) and an assay without PIM-1 kinase served as negative assay (neg). […] Each assay result was normalized in comparison to the positive control which was defined as 100 % activity. […] In vitro assays of PIM-1 kinase activity (2.5 ng) in the present of increasing concentrations of the compound E were performed as described within example 5. An assay without additional test compound served as positive control for the assay (pos) and an assay without PIM-1 kinase served as negative assay (neg). […] Each assay result was normalized in comparison to the positive control which was defined as 100 % activity.
The in vitro assay for PIM-1 kinase inhibition was performed using the PIM-1 Kinase Assay Kit (Cell Signaling Technology Inc., Boston, USA) according to the manufacture's instruction. Briefly, 1.5 or 2.5 ng PIM-1 kinase has been dissolved in 50 µl assay buffer (25 mM Tris-Hcl (pH 7.5), 10 mM MgCl2, 5 mM beta-glycerophosphate, 0.1 mM Na3VO4, 2 mM DTT, 200 µM ATP, and 1.5 µM peptide substrate) and test compound has been added to a final concentration in a range of 0.1 to 100 µM. After 30 minutes incubation at ambient temperature the reaction was stopped by adding 50 µl Stop buffer (50 mM EDTA, pH 8) per reaction. An aliquot of 25 µl per reaction was diluted each by 75 µl water and transferred to a 96-well streptavidin-coated plate. After 60 minutes incubation and three times washing with PBS, 100 µl/well primary antibody (Phospho-Bad (Ser112) antibody, 1:1000 diluted in PBS) was added. After further 2 h incubation and three times washing with PBS, an usual colorimetric ELISA assay was performed using a HRP labeled second antibody according to the manufacture's instructions. A PIM kinase reaction without addition of a test compound served as positive control (pos) and an assay without PIM kinase served as negative control (neg). […] The PIM-1 kinase inhibition of the test compounds (1-chloro-5-([1,4]diazepane-1-sulfonyl)-8-propoxy-isoquinoline (compound A), 1-chloro-5-(piperazin-1-sulfonyl)-8-methoxy-isoquinoline (compound B), 1-methyl-5-([1,4]diazepane-1-sulfonyl)-8-methoxy-isoquinoline (compound C), and 1-chloro-5-([1,4]diazepane-1-sulfonyl)-6-methoxy-isoquinoline (compound D)) was measured in a first series of assays, and the one of the compound 5-([1,4]diazepane-1-sulfonyl)-8-methoxy-isoquinoline (compound E) was measured in a second series of assays. Within each series of assays the measured PIM-1 kinase activity was normalized in comparison to the positive control (pos) which was defined as 100 % activity. […] The table below summarizes the percentage of the remaining PIM-1 kinase activity in the presence of the test compounds in a final concentration of 100 µM.

T1 sequence (P11309 whole entry): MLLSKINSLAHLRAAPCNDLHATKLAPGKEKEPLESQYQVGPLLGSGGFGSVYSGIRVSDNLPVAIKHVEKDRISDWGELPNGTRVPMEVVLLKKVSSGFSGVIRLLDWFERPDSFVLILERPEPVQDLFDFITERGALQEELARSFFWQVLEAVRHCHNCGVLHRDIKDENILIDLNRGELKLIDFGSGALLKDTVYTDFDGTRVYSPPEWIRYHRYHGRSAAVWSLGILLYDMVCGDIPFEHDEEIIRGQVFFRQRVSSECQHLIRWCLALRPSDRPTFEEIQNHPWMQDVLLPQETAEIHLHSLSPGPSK

Structure (SMILES) | % remaining PIM-1 kinase activity | PIM-1 kinase inhibition (result in words)
COc1ccc(S(=O)(=O)N2CCNCC2)c2ccnc(Cl)c12 [B, 1-chloro-5-(piperazin-1-sulfonyl)-8-methoxy-isoquinoline] | 33% | potent PIM-1 kinase inhibitors; also recorded: potent PIM inhibitory effect
COc1ccc(S(=O)(=O)N2CCCNCC2)c2ccnc(C)c12 [C, 1-methyl-5-([1,4]diazepane-1-sulfonyl)-8-methoxy-isoquinoline] | 31% | potent PIM-1 kinase inhibitors; also recorded: potent PIM inhibitory effect
CCCOc1ccc(S(=O)(=O)N2CCCNCC2)c2ccnc(Cl)c12 [Compound A, 1-chloro-5-([1,4]diazepane-1-sulfonyl)-8-propoxy-isoquinoline] | 23% | potent PIM-1 kinase inhibitors; also recorded: potent PIM inhibitory effect
COc1ccc(S(=O)(=O)N2CCCNCC2)c2ccncc12 [E, 5-([1,4]diazepane-1-sulfonyl)-8-methoxy-isoquinoline, reference compound] | 46% | at most a moderate PIM-1 kinase inhibition; also recorded: only weak PIM inhibitory effect
O=S(=O)(c1cccc2cnccc12)N1CCCNCC1 [F, Fasudil, reference compound] | 71% | at the most very weak PIM-1 inhibition

Second part, led by results:

% remaining PIM-1 kinase activity | Structure (SMILES) | PIM-1 kinase inhibition (result in words)
29% | COc1ccc2c(Cl)nccc2c1S(=O)(=O)N1CCCNCC1 [D, 1-chloro-5-([1,4]diazepane-1-sulfonyl)-6-methoxy-isoquinoline] | potent PIM-1 kinase inhibitors; also recorded: potent PIM inhibitory effect
17% | COc1ccc(S(=O)(=O)N2CCCNCC2)c2ccnc(Cl)c12 [G, 1-chloro-8-methoxy-Fasudil, reference compound] | very potent PIM-1 inhibitor
